Results as given in EP0561850B1, “7-SUBSTITUTED-6-FLUORO-1,4-DIHYDRO-4-OXO-QUINOLINE-3-CARBOXYLIC ACID COMPOUNDS USEFUL AS ANTIBACTERIAL AGENTS” (priority 1990, dated 1992).
In brackets after ≈: the same amount, converted by molar mass. Where two headings read alike, the source gives them in different places.

Legend:
[1] = test system: Pseudomonas aeruginosa S-67; assay: Microbroth dilution (MHB) method, NCCLS M7-A2; format: cell-based; conditions: Pseudomonas aeruginosa, S67
Experimental: (§1) The test organisms were obtained from ATCC and clinical laboratories. The 96-well microtitre plates containing […] of serially diluted test compounds in Mueller Hinton Broth (MHB) (conc. range 64-0.03 µg/ml) were inoculated with […] of bacterial suspension in MHB so that an inoculum size of 5 x 10^5 cfu/ml was achieved.
(§2) EC. (S- 63): Eschericia coli Ecl. (S- 130): Enterobacter cloacae Pa. (S- 67): Pseudomonas aeruginosa Kp. (S- 80): Klebsiella pneumoniae Pr.
(§3) Microbroth Dilution (MHB) method; Inoculum, 5 x 10^5 cfu/ml; Incubation 35 °C/18 hr

Eschericia coli S-63 = assay: Microbroth dilution (MHB) method, NCCLS M7-A2; format: cell-based; conditions: Ec S-63, inoculum 5 x 10^5 cfu/ml, 35 °C/18 hr, read-out: MIC
Experimental: as §1, §2, §3

[2] = test system: Providencia rettgeri S-121; assay: Microbroth dilution (MHB) method, NCCLS M7-A2; format: cell-based; conditions: Providencia rettgeri, S121, Pr S-121, inoculum 5 x 10^5 cfu/ml, 35 °C/18 hr, read-out: MIC
Experimental: as §1, §2, §3

[3] = test system: Klebsiella pneumoniae S-80; assay: Microbroth dilution (MHB) method, NCCLS M7-A2; format: cell-based; conditions: Klebsiella pneumoniae, S80
Experimental: as §1, §2, §3

Sa 127M = assay: Microbroth dilution (MHB) method, NCCLS M7-A2; format: cell-based, Staphylococcus aureus; conditions: Staphylococcus aureus, inoculum 5 x 10^5 cfu/ml, 35 °C/18 hr, read-out: MIC
Experimental: as §1, §2, §3

[4] = test system: Fusobacterium mortiferum AN-13; assay: In vitro antimicrobial activity against anaerobes, broth microdilution; format: cell-based
Excerpt: (§4) The compounds of the invention display antibacterial activity when tested by the broth microdilution method as described in the NCCLS publications M7-A, M11-A and M17-P of the year 1985. For aerobic microorganisms, a cation supplemented Mueller Hinton Broth (BBL) was used whereas the Anaerobe Broth MIC (Difco) was used for anaerobic microorganisms. An agar Dilution method was employed for certain aerobic microorganisms using Mueller Hinton II Agar (BBL) and a Cathra multipoint inoculating device which delivered 10^4 cfu/spot of the inoculum on the agar surface. MICs were read after 16-18 hours and 48 hours of incubation in case of microbes growing aerobically and anaerobically respectively.
(§5) By use of the above method, the following minimum inhibitory concentration values (MICs in µg/ml) were obtained: Table 1, against microbes growing aerobically; Table 2, against microbes growing anaerobically; Table 3, against methicillin resistant Staphylococcus aureus and quinoline resistant-methicillin resistant Staphylococcus aureus.

[5] = test system: Peptostreptococcus asaccharolyticus AN-16; assay: as above; format: cell-based; conditions: Peptoniphilus asaccharolyticus
Excerpt: as §4, §5

[6] = test system: Streptococcus intermedius AN-19; assay: as above; format: cell-based
Excerpt: as §4, §5

[7] = test system: Propionobacterium acne AN-17; assay: as above; format: cell-based
Excerpt: as §4, §5

Bacteroides fagilis AN-2 = assay: as above; format: cell-based
Excerpt: as §4, §5

[8] = test system: Quinoline Resistant MRSAs (QRMRSAs); assay: In vitro antimicrobial activity against quinoline resistant MRSA; format: cell-based; conditions: Staphylococcus aureus; QRMRSA (8 C.I.), C.I. = Clinical Isolates
Experimental: as §4, with “For” for “The compounds of the invention display antibacterial activity when tested by the broth microdilution method as described in the NCCLS publications M7-A, M11-A and M17-P of the year 1985. For”

[9] = test system: Methicillin Resistant S. aureus (MRSAs); assay: In vitro antimicrobial activity against methicillin resistant S. aureus; format: cell-based; conditions: Staphylococcus aureus; MRSA (6 C.I.), C.I. = Clinical Isolates
Experimental: as §4, with “For” for “The compounds of the invention display antibacterial activity when tested by the broth microdilution method as described in the NCCLS publications M7-A, M11-A and M17-P of the year 1985. For”

[10] = test system: Staphylococcus aureus S-127; assay: In vitro antimicrobial activity against aerobes, broth microdilution (NCCLS 1985); format: cell-based; conditions: S127, read after 16-18 hours
Experimental: as §4, with “For” for “The compounds of the invention display antibacterial activity when tested by the broth microdilution method as described in the NCCLS publications M7-A, M11-A and M17-P of the year 1985. For”

[11] = AN13, Fusobacterium mortiferum AN-13, anaerobes, read after 48 hours, read-out: MIC
[12] = AN16, Peptostreptococcus asaccharolyticus AN-16, anaerobes, read after 48 hours, read-out: MIC
[13] = AN19, Streptococcus intermedius AN-19, anaerobes, read after 48 hours, read-out: MIC
[14] = Propionobacterium acne AN-17, anaerobes, read after 48 hours, read-out: MIC
[15] = AN2, Bacteroides fagilis AN-2, anaerobes, read after 48 hours, read-out: MIC

MIC [4, 11]	MIC [5, 12]	MIC [6, 13]	MIC [7, 14]	MIC (Bacteroides fagilis AN-2; [15])	MIC [8]	MIC [9]	MIC [10]	SMILES	other results
–	–	–	–	–	–	–	–	O=C(O)c1cn(C2CC2)c2cc(N3CCNCC3)c(F)cc2c1=O [Ciprofloxacin, reference compound]	MIC [1]: 0.25 µg/mL (≈ 0.754 µM); MIC (Eschericia coli S-63): ≤ 0.008 µg/mL; MIC [2]: 0.015 µg/mL (≈ 0.0453 µM); MIC [3]: 0.015 µg/mL (≈ 0.0453 µM); MIC (Sa 127M): 8 µg/mL (≈ 24.1 µM); MIC ([4]; Fusobacterium mortiferum, AN13, 48 h): 16 µg/mL (≈ 48.3 µM); MIC ([5]; AN16, 48 h): 4 µg/mL (≈ 12.1 µM); MIC ([6]; Streptococcus intermedius, AN19, 48 h): 1 µg/mL (≈ 3.02 µM); MIC ([7]; 48 h): 0.5 µg/mL (≈ 1.51 µM); MIC (Bacteroides fagilis AN-2; Bacteroides, AN2, 48 h): 16 µg/mL (≈ 48.3 µM)
0.06 µg/mL (≈ 0.144 µM)	0.06 µg/mL (≈ 0.144 µM)	0.06 µg/mL (≈ 0.144 µM)	≤ 0.03 µg/mL	1 µg/mL (≈ 2.4 µM)	0.5 to 2 µg/mL (≈ 1.2 to 4.8 µM)	0.004 to 0.008 µg/mL (≈ 0.00961 to 0.0192 µM)	–	Nc1c(F)c(N2CCC(n3ccnn3)C2)c(F)c2c1c(=O)c(C(=O)O)cn2C1CC1 (centres unmarked) [Example 11, 5-Amino-1-cyclopropyl-6,8-difluoro-7-[3-(1,2,3-triazol-1-yl)-pyrrolidin-1-yl]-1,4-dihydro-4-oxo-quinoline-3-carboxylic acid]	–
0.5 µg/mL (≈ 1.27 µM)	4 µg/mL (≈ 10.2 µM)	0.5 µg/mL (≈ 1.27 µM)	1 µg/mL (≈ 2.55 µM)	2 µg/mL (≈ 5.1 µM)	4 to 16 µg/mL (≈ 10.2 to 40.8 µM)	0.03 to 0.12 µg/mL (≈ 0.0765 to 0.306 µM)	0.06 µg/mL (≈ 0.153 µM)	C[C@@H]1CN(c2c(F)c(N)c3c(=O)c(C(=O)O)cn(C4CC4)c3c2F)C[C@H](C)N1 [Sparfloxacin, reference compound]	–
–	–	–	–	–	1 to 16 µg/mL (≈ 2.05 to 32.8 µM)	0.008 to 0.015 µg/mL (≈ 0.0164 to 0.0307 µM)	0.015 µg/mL (≈ 0.0307 µM)	Nc1c(F)c(N2CC[C@H](n3ccnn3)C2)c(F)c2c1c(=O)c(C(=O)O)cn2-c1ccc(F)cc1F [Example 15]	–
2 µg/mL (≈ 4.09 µM)	0.12 µg/mL (≈ 0.246 µM)	0.06 µg/mL (≈ 0.123 µM)	0.06 µg/mL (≈ 0.123 µM)	> 64 µg/mL	1 to 8 µg/mL (≈ 2.05 to 16.4 µM)	0.008 to 0.03 µg/mL (≈ 0.0164 to 0.0614 µM)	≤ 0.015 µg/mL	Nc1c(F)c(N2CCC(n3ccnn3)C2)c(F)c2c1c(=O)c(C(=O)O)cn2-c1ccc(F)cc1F (centres unmarked) [Example 14, 5-Amino-1-(2,4-difluorophenyl)-6,8-difluoro-7-[3-(1,2,3-triazol-1-yl)pyrrolidin-1-yl]-1,4-dihydro-4-oxo-quinoline-3 carboxylic acid]	–
0.06 µg/mL (≈ 0.144 µM)	0.06 µg/mL (≈ 0.144 µM)	0.12 µg/mL (≈ 0.288 µM)	0.06 µg/mL (≈ 0.144 µM)	1 µg/mL (≈ 2.4 µM)	0.5 to 2 µg/mL (≈ 1.2 to 4.8 µM)	0.004 to 0.008 µg/mL (≈ 0.00961 to 0.0192 µM)	0.008 µg/mL (≈ 0.0192 µM)	Nc1c(F)c(N2CC[C@H](n3ccnn3)C2)c(F)c2c1c(=O)c(C(=O)O)cn2C1CC1 [Example 12, 5-Amino-1-cyclopropyl-6,8-difluoro-7-[3S-(1,2,3-triazol-1-yl)-pyrrolidin-1-yl]-1,4-dihydro-4-oxo-quinoline-3-carboxylic acid]	–
–	–	–	–	–	–	–	1 µg/mL (≈ 2.4 µM)	N[C@@H]1CN(c2c(F)cc3c(=O)c(C(=O)O)cn(C4CC4)c3c2F)C[C@@H]1n1ccnn1 (relative stereo) [Example 17, 7-[cis-3-Amino-4-(1,2,3-triazol-1-yl)-pyrrolidin-1-yl]-1-cyclopropyl-6,8-difluoro-1,4-dihydro-4-oxo-quinoline-3-carboxylic acid]	–
–	–	–	–	–	2 to 16 µg/mL (≈ 4.95 to 39.6 µM)	0.015 to 0.03 µg/mL (≈ 0.0371 to 0.0742 µM)	–	NC1CCN(c2nc3c(cc2F)c(=O)c(C(=O)O)cn3-c2ccc(F)cc2F)C1 (centres unmarked) [Tosufloxacin, reference compound]	–
